Our source for the Ki values is ChEMBL document CHEMBL1139540, “Replacement of Phe6, Phe7, and Phe11 of D-Trp8-somatostatin-14 with L-pyrazinylalanine. Predicted and observed effects on binding affinities at hSST2 and hSST4. An unexpected effect of the chirality of Trp8 on NMR spectra in methanol” (J Med Chem, 2005).

Bridge positions count the residues as written; N and C are the ends. Peptide text beside a SMILES is read from it. Where only a bound is given, the exact number is not on record here.

The target of test [1] is T1, Somatostatin receptor type 2 (Homo sapiens, UniProt P30874). The test is described as follows: Inhibition of human somatostatin receptor type 2.
T1 sequence (P30874 whole entry): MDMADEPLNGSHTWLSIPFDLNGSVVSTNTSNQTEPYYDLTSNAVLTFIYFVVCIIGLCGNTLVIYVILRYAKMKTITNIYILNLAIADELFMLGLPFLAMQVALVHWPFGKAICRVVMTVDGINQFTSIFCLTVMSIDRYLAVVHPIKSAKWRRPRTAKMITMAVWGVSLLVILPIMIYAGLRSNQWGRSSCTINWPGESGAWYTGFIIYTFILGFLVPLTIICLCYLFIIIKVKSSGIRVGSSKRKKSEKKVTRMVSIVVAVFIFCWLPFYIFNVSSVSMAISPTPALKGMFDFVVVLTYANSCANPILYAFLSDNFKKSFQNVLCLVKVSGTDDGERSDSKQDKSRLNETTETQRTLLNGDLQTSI
Test [2] has as its target T2, Somatostatin receptor type 4 (Homo sapiens, UniProt P31391). Briefly: Inhibition of human somatostatin receptor type 4.
Test [3] addresses T1, Somatostatin receptor type 2. Briefly: Inhibition of human somatostatin receptor type 2 (n=6).
Test [4] deals with T2, Somatostatin receptor type 4. The test is described as follows: Inhibition of human somatostatin receptor type 4 (n=5).

T2 sequence (P31391 whole entry): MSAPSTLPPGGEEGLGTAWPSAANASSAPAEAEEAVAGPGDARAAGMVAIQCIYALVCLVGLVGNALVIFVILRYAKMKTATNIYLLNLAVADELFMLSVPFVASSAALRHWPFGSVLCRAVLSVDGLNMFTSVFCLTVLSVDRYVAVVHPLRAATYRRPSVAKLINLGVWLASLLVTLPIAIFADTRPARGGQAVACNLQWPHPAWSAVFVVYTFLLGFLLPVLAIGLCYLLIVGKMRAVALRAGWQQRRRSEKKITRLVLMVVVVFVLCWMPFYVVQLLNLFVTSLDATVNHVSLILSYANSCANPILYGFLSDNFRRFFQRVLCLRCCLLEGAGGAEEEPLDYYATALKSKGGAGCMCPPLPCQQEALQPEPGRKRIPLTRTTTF

As for `C[C@H](N)C(=O)NCC(=O)N[C@H]1CSSC[C@@H](C(=O)O)NC(=O)[C@H](CO)NC(=O)[C@H]([C@@H](C)O)NC(=O)[C@H](Cc2cnccn2)NC(=O)[C@H]([C@@H](C)O)NC(=O)[C@H](CCCCN)NC(=O)[C@@H](Cc2c[nH]c3ccccc23)NC(=O)[C@H](Cc2ccccc2)NC(=O)[C@H](Cc2ccccc2)NC(=O)[C@H](CC(N)=O)NC(=O)[C@H](CCCCN)NC1=O`, the Ki – broadly, a dissociation constant, usually derived from enzyme kinetics or from competition with a known ligand – in test [1] amounted to 1 nM; in test [2] it was 124 nM.

Regarding `C[C@H](N)C(=O)NCC(=O)N[C@H]1CSSC[C@@H](C(N)=O)NC(=O)[C@H](CO)NC(=O)[C@H]([C@@H](C)O)NC(=O)[C@H](Cc2ccccc2)NC(=O)[C@H]([C@@H](C)O)NC(=O)[C@H](CCCCN)NC(=O)[C@H](Cc2c[nH]c3ccccc23)NC(=O)[C@H](Cc2ccccc2)NC(=O)[C@H](C)NC(=O)[C@H](CC(N)=O)NC(=O)[C@H](CCCCN)NC1=O` (H-AGCKNAFWKTFTSC-NH2; disulfide 3-14), in test [2], the Ki came out at 80 nM.

Take `C[C@H](N)C(=O)NCC(=O)N[C@H]1CSSC[C@@H](C(N)=O)NC(=O)[C@H](CO)NC(=O)[C@H]([C@@H](C)O)NC(=O)[C@H](C)NC(=O)[C@H]([C@@H](C)O)NC(=O)[C@H](CCCCN)NC(=O)[C@H](Cc2c[nH]c3ccccc23)NC(=O)[C@H](Cc2ccccc2)NC(=O)[C@H](Cc2ccccc2)NC(=O)[C@H](CC(N)=O)NC(=O)[C@H](CCCCN)NC1=O` (H-AGCKNFFWKTATSC-NH2; disulfide 3-14): the Ki in test [2] was less than 1 nM.

As for `C[C@H](N)C(=O)NCC(=O)N[C@H]1CSSC[C@@H](C(=O)O)NC(=O)[C@H](CO)NC(=O)[C@H]([C@@H](C)O)NC(=O)[C@H](Cc2ccccc2)NC(=O)[C@H]([C@@H](C)O)NC(=O)[C@H](CCCCN)NC(=O)[C@@H](Cc2c[nH]c3ccccc23)NC(=O)[C@H](Cc2ccccc2)NC(=O)[C@H](Cc2cnccn2)NC(=O)[C@H](CC(N)=O)NC(=O)[C@H](CCCCN)NC1=O`, the Ki in test [3] amounted to 7 nM; in test [1], 1 nM; in test [2], 60 nM; in test [4] it was 77 nM.

With `C[C@H](N)C(=O)NCC(=O)N[C@H]1CSSC[C@@H](C(=O)O)NC(=O)[C@H](CO)NC(=O)[C@H]([C@@H](C)O)NC(=O)[C@H](Cc2ccccc2)NC(=O)[C@H]([C@@H](C)O)NC(=O)[C@H](CCCCN)NC(=O)[C@@H](Cc2c[nH]c3ccccc23)NC(=O)[C@H](Cc2cnccn2)NC(=O)[C@H](Cc2ccccc2)NC(=O)[C@H](CC(N)=O)NC(=O)[C@H](CCCCN)NC1=O`, the values for the Ki in test [1] and in test [2] were greater than 1000 nM and 700 nM, respectively.
